Experimental data taken from US8017350B2, “Glimepiride- and insulin-induced glycosylphosphatidylinositol-specific phospholipase C regulation” (Sanofi-Aventis Deutschland GmbH, priority 2004, dated 2011).

System: cabbage PLD
Test: PLD assay ([14C]phosphatidylcholine)
Assay type: biochemical
Conditions: 50 μM
Method: Hormone-sensitive lipase (HSL) and lipoprotein lipase (LPL) were measured using a radiolabeled triolein droplet emulsion as described in “Vertesy et al., (2002) Journal Antibiotics 55:480-494”. Pancreatic lipase (PL) was determined by incubation of 0.25 mmol tributyrin in 2 ml of 5 mM Tris/HCl (pH 6.5), 6 mM sodium taurodeoxycholate, 150 mM NaCl, 1 mM CaCl2 with porcine PL and colipase in the same buffer using a recording pH stat (stirring at 1000 rpm at 25° C.) with the pH adjusted to 6.5. PC-PLC was assayed by incubation of 0.2 ml of 10 mM dipalmitoyllecithin, 0.1 ml of 10 mM SDC and 0.1 ml of 0.03 M CaCl2 with bacterial PC-PLC (in 50 mM Tris/HCl, pH 7.5, 0.1% BSA) for 10 min at 37° C. The reaction was terminated by addition of 0.1 ml of 50% TCA and subsequently of 2.5 ml of […]. After centrifugation (1500×g, 15 min), 0.2-ml portions of the upper methanol/water phase (˜1.33 ml) were removed, supplemented with 0.5 ml of 60% HClO4, then heated at 170° C. for 1 h and finally analyzed for inorganic phosphate. Mammalian PI-PLC was measured by incubation of 0.1 ml of 10 mM PI, 0.1 ml of 0.8% sodium deoxycholate, 0.1% BSA, 0.2 ml of 100 mM sodium borate (pH 7.5) and rat liver PI-PLC for 20 min at 37° C. The reaction was terminated and further processed as described for the PC-PLC. […] Radioactive phosphatidic acid was detected by phosphorimaging. […]

**Q.** Which “effect on PLD” value does the source give for `CCCCCCCCCCCCP1(=O)O[C@@H]2[C@H](O)[C@@H](O)[C@H](O)[C@@H](O)[C@@H]2O1` (stereo partly shown) [GPI-2350, myo-inositol-1,2-cyclo-dodecylphosphonic acid] here?
**A.** not significantly affected
